# Data as given in US9775844B2, “Heterocyclic compounds and uses thereof” (Infinity Pharmaceuticals, Inc., priority 2014, dated 2017).
# Where two headings read alike, the source gives them in different places.
# Columns and labels:
# human T cells = experiment: Concanavalin A-induced model for activation of human T cells (IFN-γ); assay type: cell-based
# PI3K δ = PI3K δ (Homo sapiens (Human), UniProt O00329); experiment: PI3-Kinase Promega ADP-Glo Max assay; assay type: biochemical; conditions: IC50 against PI3K gamma divided by IC50 against PI3K delta
# Chain of PI3K δ (O00329 whole entry): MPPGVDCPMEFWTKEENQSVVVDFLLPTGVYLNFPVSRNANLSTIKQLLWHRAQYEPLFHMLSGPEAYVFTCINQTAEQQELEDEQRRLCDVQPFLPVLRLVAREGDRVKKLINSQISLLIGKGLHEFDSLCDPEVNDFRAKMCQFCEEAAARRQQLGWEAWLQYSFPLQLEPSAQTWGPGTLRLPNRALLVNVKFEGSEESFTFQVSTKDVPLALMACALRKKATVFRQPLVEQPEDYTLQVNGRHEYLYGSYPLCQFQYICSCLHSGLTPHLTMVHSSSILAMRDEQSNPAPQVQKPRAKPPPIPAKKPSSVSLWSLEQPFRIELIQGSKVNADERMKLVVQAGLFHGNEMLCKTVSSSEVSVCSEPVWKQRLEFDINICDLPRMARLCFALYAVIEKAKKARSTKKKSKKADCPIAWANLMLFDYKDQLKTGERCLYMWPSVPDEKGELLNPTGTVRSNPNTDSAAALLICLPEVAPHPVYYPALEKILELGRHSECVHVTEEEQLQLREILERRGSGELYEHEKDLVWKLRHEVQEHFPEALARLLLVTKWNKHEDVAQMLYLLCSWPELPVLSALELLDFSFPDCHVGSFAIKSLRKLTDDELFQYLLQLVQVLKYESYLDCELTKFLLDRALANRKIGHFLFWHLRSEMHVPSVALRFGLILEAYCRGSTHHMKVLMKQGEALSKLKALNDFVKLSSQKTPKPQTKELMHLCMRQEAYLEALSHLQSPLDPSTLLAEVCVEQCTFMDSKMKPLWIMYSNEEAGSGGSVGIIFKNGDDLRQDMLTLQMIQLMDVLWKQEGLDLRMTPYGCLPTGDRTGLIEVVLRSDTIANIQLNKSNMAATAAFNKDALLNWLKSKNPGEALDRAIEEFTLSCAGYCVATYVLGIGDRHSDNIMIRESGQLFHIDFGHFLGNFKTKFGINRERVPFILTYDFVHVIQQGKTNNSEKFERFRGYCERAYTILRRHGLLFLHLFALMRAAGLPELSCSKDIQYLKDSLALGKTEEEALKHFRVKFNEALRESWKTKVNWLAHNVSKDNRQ
# Chain of PI3K δ (P27986 whole entry partner): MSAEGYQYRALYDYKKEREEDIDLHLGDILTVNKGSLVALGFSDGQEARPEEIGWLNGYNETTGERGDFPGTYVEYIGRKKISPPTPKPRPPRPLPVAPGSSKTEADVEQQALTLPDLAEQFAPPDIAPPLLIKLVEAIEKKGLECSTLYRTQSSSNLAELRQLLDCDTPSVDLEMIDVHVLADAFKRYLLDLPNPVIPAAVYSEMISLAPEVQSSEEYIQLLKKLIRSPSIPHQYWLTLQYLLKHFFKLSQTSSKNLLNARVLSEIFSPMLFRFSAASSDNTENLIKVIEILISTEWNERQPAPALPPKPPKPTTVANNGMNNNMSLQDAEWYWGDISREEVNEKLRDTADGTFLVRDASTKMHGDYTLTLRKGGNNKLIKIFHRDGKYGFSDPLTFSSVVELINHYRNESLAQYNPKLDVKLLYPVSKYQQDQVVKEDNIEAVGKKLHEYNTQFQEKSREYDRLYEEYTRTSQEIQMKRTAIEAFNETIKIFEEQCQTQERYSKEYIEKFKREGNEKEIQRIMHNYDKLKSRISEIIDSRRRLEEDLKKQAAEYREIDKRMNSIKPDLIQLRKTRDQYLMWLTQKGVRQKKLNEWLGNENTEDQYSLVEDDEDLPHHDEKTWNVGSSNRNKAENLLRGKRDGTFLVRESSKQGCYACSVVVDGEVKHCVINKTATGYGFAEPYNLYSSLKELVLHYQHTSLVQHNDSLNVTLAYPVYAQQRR
# Protocol: Promega ADP-Glo Max assay kit (Cat. No. V7002) was utilized to determine IC50 values for α, β, δ and γ isoforms of human Class I PI3 kinases (Millipore). […] Reactions were incubated at room temperature for 2 hours followed by addition of 25 uL of stop solution. After a 40-minute incubation at room temperature, 50 uL of Promega detection mix was added followed by incubation for 1 hour at room temperature. Plates were then read on Envision plate reader in lunimescence mode. Data was converted to % inhibition using the following equation below:
# [formula] where S is the sample luminescence, Pos is a positive control without added PI3K, Neg is the negative control without added compound. Data was then plotted as % inhibition vs compound concentration.
# PI3K-δ in RAJI cells = PI3K-δ in RAJI cells (Homo sapiens (Human), UniProt O00329); experiment: RAJI p110 δ assay (PI3K-δ selective cellular assay, phospho-AKT); assay type: cell-based; conditions: read-out: Cellular IC50 δ
# Chain of PI3K-δ in RAJI cells (O00329 whole entry): as the sequence (O00329 whole entry) above
# Chain of PI3K-δ in RAJI cells (P27986 whole entry partner): as the sequence (P27986 whole entry partner) above
# [1] = biological target: PI3K-γ in RAW264.7 macrophages (Mus musculus (Mouse), UniProt Q9JHG7); experiment: Raw264.7 p110 γ assay (PI3K-γ selective cellular assay, C5a-stimulated phospho-AKT); assay type: cell-based; conditions: read-out: Cellular IC50 γ
# Chain of PI3K-γ in RAW264.7 macrophages (Q9JHG7 whole entry): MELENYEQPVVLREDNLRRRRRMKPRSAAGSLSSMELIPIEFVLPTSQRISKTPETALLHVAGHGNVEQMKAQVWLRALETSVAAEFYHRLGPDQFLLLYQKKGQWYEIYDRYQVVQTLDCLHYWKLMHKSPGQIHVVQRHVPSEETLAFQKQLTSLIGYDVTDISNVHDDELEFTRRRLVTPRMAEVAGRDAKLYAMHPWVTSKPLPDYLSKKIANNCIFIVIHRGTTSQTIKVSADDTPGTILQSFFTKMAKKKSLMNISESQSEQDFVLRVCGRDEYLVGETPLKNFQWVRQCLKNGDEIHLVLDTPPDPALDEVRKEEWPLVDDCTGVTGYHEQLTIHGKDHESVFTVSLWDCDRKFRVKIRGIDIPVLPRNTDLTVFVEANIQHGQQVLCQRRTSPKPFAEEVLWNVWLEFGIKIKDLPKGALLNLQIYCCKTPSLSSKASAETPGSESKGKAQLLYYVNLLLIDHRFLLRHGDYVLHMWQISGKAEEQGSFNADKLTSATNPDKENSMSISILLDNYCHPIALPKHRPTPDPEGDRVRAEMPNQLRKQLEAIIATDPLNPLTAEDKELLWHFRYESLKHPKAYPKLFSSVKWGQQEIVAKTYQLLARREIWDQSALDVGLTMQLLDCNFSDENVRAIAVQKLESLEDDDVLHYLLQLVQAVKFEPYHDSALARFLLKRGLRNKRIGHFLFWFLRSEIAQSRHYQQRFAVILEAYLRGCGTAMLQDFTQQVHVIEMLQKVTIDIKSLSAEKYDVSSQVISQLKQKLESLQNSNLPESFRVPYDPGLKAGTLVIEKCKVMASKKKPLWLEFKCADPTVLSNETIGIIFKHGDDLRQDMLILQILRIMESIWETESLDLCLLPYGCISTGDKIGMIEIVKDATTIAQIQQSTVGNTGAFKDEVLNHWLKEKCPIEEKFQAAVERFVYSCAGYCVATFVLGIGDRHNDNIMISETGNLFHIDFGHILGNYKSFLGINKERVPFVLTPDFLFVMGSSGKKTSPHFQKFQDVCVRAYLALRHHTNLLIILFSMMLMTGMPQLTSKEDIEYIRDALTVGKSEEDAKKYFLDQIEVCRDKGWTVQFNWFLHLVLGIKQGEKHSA
# Description: Briefly, serum-starved RAW264.7 cells are stimulated with a known GPCR agonist C5a. […] Cells can be treated with test compounds prior to, simultaneously with, or subsequent to the stimulation by C5a. RAW 264.7 cells respond to the complement component fragment C5a through activation of the C5a receptor, and the C5a receptor activates macrophages and induces cell migration.
# PI3K-α in SKOV-3 cells = PI3K-α in SKOV-3 cells (Homo sapiens (Human), UniProt P42336, H1047R); experiment: PI3K-α selective cellular assay (phospho-AKT); assay type: cell-based
# Chain of PI3K-α in SKOV-3 cells (P42336 whole entry H1047R): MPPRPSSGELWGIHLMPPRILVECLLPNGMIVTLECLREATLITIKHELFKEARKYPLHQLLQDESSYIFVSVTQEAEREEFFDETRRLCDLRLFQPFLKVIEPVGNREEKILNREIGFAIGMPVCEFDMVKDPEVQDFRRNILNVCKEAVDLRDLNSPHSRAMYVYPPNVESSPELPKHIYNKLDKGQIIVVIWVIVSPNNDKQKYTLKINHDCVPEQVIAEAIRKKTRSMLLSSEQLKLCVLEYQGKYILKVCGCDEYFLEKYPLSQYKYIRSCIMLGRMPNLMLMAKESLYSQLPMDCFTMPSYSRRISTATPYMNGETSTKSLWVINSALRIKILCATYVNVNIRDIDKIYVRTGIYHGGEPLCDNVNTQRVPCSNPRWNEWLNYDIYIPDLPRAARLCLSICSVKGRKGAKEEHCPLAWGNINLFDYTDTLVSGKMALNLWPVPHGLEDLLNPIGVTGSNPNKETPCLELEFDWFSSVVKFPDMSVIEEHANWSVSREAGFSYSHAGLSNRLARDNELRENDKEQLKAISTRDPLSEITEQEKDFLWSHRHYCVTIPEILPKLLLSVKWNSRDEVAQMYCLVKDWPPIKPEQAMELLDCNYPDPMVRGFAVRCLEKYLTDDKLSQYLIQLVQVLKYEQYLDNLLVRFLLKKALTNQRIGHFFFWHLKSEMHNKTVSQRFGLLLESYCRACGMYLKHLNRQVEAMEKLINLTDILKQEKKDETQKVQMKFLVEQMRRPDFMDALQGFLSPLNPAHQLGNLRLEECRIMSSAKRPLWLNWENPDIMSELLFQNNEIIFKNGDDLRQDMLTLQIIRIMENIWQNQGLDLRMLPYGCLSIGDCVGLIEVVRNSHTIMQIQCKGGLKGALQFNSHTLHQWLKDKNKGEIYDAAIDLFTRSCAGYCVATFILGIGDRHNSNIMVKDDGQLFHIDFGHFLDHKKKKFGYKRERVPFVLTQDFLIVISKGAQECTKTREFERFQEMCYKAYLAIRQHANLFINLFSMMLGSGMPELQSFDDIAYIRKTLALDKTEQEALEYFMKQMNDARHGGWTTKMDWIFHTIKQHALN
# Chain of PI3K-α in SKOV-3 cells (P27986 whole entry partner): as the sequence (P27986 whole entry partner) above
# PI3K-β in 786-O cells = PI3K-β in 786-O cells (Homo sapiens (Human), UniProt P42338); experiment: PI3K-β selective cellular assay (phospho-AKT); assay type: cell-based
# [2] = tested on: LPS induced neutrophil influx in bronchoalveolar lavage fluid; experiment: LPS-induced neutrophilia, oral administration; assay type: in vivo; conditions: rat, p.o., 4 hours post-LPS challenge, dose dependent
# Protocol: (§1) This study also includes assessment of the exposure to the compounds in plasma and lung tissues.
# (§2) Ref C is budesonide p.o. The compound was administered p.o. and about 1 hour later, LPS was administered intra-tracheally and plasma was collected. After about 5 hours, plasma and bronchoalveolar lavage samples were collected.
# [3] = Oral PK in the rat LPS studies (free plasma concentration); assay type: in vivo; conditions: for concentration at 1.5 h / concentration at […]: plasma, po, read-out: Free Plasma Conc; for concentration at […]: 5.5h
# Protocol: as §1, §2
# [4] = tested on: CXCL12 induced p-AKT in polarized bone marrow derived macrophages; experiment: CXCL12-induced p-AKT induction assay in differentiated macrophages; assay type: cell-based, mouse
# Description: Macrophage Differentiation and Polarization: Long bones from young C57B6 mice were harvested and bone marrow was extruded by gentle lavage of the bone marrow cavities with a 28 gauge needle. Red blood cells were removed using red blood cell lysis buffer (Sigma). Bone marrow cells were differentiated to macrophages using MCSF for 6 days (RPMI and 20% FCS) with one media change (with removal of all non-adherent cells) at day 3. Macrophages were polarized into MO (MCSF), M1 (MCSF, IFNγ, and LPS for 1 day), or M2 (MCSF, IL4 for 2 days).
# CXCL12-Induced p-AKT Induction Assay: Polarized macrophages were lifted with Acutase, and plated at 0.5M cells per well (0.5 ml) in a deep well (2 ml) non adherant plate in polarization media for 1 hour. […] CXCL12 was added, and the cells were mixed on a plate shaker for 2 minutes. 1 ml of 37 degree FACS Lyse/fix buffer (BD bioscience) was added and the plate was mixed for 1 minute. The plates were spun and decanted and frozen at −80° C. Phospho AKT staining with anti Phospho AKT 473 PERCP labeled (Cell Signaling Technologies) was performed and measured by flow cytometry. Total cell MFI was used to calculate the effect of tested compound on CXCL12 induction of phospho AKT.
# PI3K-delta = PI3K-delta (Homo sapiens (Human), UniProt O00329); conditions: as described in Table 4 of WO2013/032591; cited from earlier work
# Chain of PI3K-delta (O00329 whole entry, species assumed, the tested form may be a part): as the sequence (O00329 whole entry) above
# Chain of PI3K-delta (P27986 whole entry partner, species assumed, the tested form may be a part): as the sequence (P27986 whole entry partner) above
# [5] = tested on: IL-8 induced neutrophil migration; experiment: IL-8 driven murine air pouch model; conditions: mouse air pouch; BB 0.1-3 mg/kg, AA 10-50 mg/kg
compound,measurement,setting,value
"CC(C)n1c([C@H](C)Nc2ncnc(N)c2C#N)cc2cccc(-c3ccc(=O)n(C)c3)c2c1=O [Compound AA, reference compound]",inhibition of IFN-γ,human T cells,highly selective inhibitor of IFN-γ
same,gamma/delta selectivity ratio,PI3K δ,greater than 50
same,IC50,PI3K-δ in RAJI cells,0.0001 µM
same,IC50,[1],0.418 µM
same,IC50,PI3K-α in SKOV-3 cells,1.9 µM
same,IC50,PI3K-β in 786-O cells,0.102 µM
same,neutrophil in bronchoalveolar lavage fluid (BALF),[2],reduced neutrophil
same,Free Plasma Conc,"[3]; p.o. 0.2 mg/kg, 1.5h",BLQ
same,concentration at 1.5 h,"[3]; p.o. 1 mg/kg, 1.5h",1.8 nM
same,concentration at […],[3]; p.o. 1 mg/kg,1.1 nM
same,concentration at 1.5 h,"[3]; p.o. 5 mg/kg, 1.5h",17.8 nM
same,concentration at […],[3]; p.o. 5 mg/kg,4.6 nM
same,"IC50, CXCL12 induced p-AKT",[4]; differentiated and M1 polarized macrophage,did not significantly inhibit
same,"IC50, CXCL12 induced p-AKT",[4]; differentiated and M2 polarized macrophage,did not significantly inhibit
same,IC50,PI3K-delta,< 0.1 µM
same,IL-8 induced neutrophil migration,[5],does not inhibit IL-8 induced neutrophil migration
